The results in this text go back to ChEMBL document CHEMBL1136064, “The synthesis and characterization of BMS-204352 (MaxiPost) and related 3-fluorooxindoles as openers of maxi-K potassium channels” (Bioorg Med Chem Lett, 2002).

“And” between values parts separate entries of the source, which are not always exact repeats. Equal entries are not always repeated.

In data set [1] the test system is HEK293. The experiment in a line: Tested for the effect on whole cell maxi-K current in HEK 293 cells at 100 nM. Format: functional, Homo sapiens. On the set-up: unit not given here.
Data set [2] has as its target Calcium-activated potassium channel subunit alpha-1 KCNMA1 (Homo sapiens) (UniProt Q12791). In words: Evaluation of maxi-K opening in Xenopus laevis oocytes injected with Hslo1 channels as percent of control current at 20 uM. The following applies: Oocyte.
Data set [3] shares this target. In words: Evaluation of maxi-K opening in Xenopus laevis oocytes injected with Hslo1 channels as percent of control current at a concentration of 20 uM. The following applies: Oocyte.
The subject of data set [4] is HEK293. In words: Tested for the effect on whole cell maxi-K current in HEK 293 cells at 10 nM. The data set is classed as functional, Homo sapiens.
Data set [5] deals with HEK293. The experiment in a line: Tested for the effect on whole cell maxi-K current in HEK 293 cells at 1000 nM. Format: functional, Homo sapiens.
A short description of data set [6]: Evaluated for AUC after iv administration of 5 mg/kg to male Sprague-Dawley rats in plasma. The data set is classed as ADME, organism-based. On the set-up: dose 5 mg/kg, route intravenous. The following applies: rat.
Data set [7] can be described thus: Evaluated for half-life after iv administration of 1 mg/kg to male Sprague-Dawley rats in plasma. The data set is classed as ADME, organism-based. On the set-up: dose 1 mg/kg, route intravenous. The following applies: rat.
Data set [8] in a line: Evaluated for half-life after iv administration of 5 mg/kg to male Sprague-Dawley rats in plasma. The data set is classed as ADME, organism-based. On the set-up: dose 5 mg/kg, route intravenous. The following applies: rat.
The nature of data set [9]: Evaluated for AUC after iv administration of 1 mg/kg to male Sprague-Dawley rats in plasma. The data set is classed as ADME, organism-based. On the set-up: dose 1 mg/kg, route intravenous. The following applies: rat.
The nature of data set [10]: Evaluated for half-life after iv administration of 5 mg/kg to male Sprague-Dawley rats in brain. The data set is classed as ADME, organism-based. On the set-up: dose 5 mg/kg, route intravenous. The following applies: rat.
Data set [11] can be described thus: Evaluated for plasma clearance after iv administration of 5 mg/kg to male Sprague-Dawley rats. Format: ADME, organism-based. On the set-up: dose 5 mg/kg, route intravenous. The following applies: rat.
Data set [12] can be described thus: Evaluated for AUC after iv administration of 5 mg/kg to male Sprague-Dawley rats in brain. Format: ADME, organism-based. On the set-up: dose 5 mg/kg, route intravenous. The following applies: rat.
Data set [13] is described as follows: Evaluated for Volume of distribution after iv administration of 5 mg/kg to male Sprague-Dawley rats. The data set is classed as ADME, organism-based. On the set-up: dose 5 mg/kg, route intravenous. The following applies: rat, in vivo, read-out: Volume of distribution.
Data set [14] is described as follows: Ratio of brain AUC versus plasma AUC. The following applies: rat. Format: ADME, cell-free.

Chain of Calcium-activated potassium channel subunit alpha-1 KCNMA1 (Homo sapiens) (Q12791 whole entry, looked up): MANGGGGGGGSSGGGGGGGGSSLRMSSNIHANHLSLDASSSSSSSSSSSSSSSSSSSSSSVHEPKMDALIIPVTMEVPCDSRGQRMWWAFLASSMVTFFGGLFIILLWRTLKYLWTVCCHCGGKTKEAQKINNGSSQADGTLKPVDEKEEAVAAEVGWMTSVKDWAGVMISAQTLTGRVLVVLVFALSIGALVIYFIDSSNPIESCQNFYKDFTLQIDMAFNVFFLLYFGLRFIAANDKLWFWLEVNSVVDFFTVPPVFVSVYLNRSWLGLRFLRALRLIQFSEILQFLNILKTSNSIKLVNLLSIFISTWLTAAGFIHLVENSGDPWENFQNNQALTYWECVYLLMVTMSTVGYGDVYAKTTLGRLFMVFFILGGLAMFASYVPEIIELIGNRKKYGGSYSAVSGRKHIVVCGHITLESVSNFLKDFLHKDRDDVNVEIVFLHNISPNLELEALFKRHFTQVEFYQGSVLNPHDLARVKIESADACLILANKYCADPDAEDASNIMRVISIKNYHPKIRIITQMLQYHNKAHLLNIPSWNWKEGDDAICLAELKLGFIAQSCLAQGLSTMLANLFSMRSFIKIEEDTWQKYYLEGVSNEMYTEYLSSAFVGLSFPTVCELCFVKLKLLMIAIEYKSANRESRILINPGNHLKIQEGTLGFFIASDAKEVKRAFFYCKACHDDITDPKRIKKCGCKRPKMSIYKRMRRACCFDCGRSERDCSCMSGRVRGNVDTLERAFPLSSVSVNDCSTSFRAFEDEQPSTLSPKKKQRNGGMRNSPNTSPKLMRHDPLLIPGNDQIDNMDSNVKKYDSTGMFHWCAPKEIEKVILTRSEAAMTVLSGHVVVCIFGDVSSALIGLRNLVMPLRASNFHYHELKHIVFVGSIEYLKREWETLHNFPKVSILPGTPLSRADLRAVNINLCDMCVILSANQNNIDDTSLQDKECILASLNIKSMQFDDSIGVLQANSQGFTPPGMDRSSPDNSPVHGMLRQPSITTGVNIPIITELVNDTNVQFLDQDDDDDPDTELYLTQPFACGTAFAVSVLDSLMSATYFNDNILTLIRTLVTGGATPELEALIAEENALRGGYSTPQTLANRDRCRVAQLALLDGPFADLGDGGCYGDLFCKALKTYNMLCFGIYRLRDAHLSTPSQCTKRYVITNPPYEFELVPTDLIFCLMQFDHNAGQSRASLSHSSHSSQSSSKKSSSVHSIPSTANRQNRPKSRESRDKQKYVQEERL

As for `COc1ccc(Cl)cc1C1(F)C(=O)Nc2c(C(F)(F)F)cccc21` (stereo not drawn), the Maxi-K current in the data set on HEK293 [1] was 131.9 and 169.6.

For `O=C1Nc2ccccc2C1(F)c1ccccc1` (stereo not drawn), in data set [2], the remaining activity at 20 µM came out at 100%.

As for `O=C1Nc2cc(C(F)(F)F)ccc2C1(F)c1ccccc1` (stereo not drawn), the remaining activity at 20 µM in data set [3] came out at 107%.

Consider `COc1ccc(Cl)cc1[C@@]1(F)C(=O)Nc2cc(C(F)(F)F)ccc21`, for which the Maxi-K current with HEK293 [4] was determined as 105; in the data set with HEK293 [1], 164.4; in the data set on HEK293 [5] it was 205.3.

In the case of `COc1ccc(Cl)cc1[C@]1(F)C(=O)Nc2cc(C(F)(F)F)ccc21` [FLINDOKALNER], the AUC (usually the area under the concentration-time curve, a measure of exposure) in [6] worked out at 3000 ng·h/mL; in data set [9], 320 ng·h/mL; in data set [12], 28800 ng·h/mL. Besides, the half-life (commonly how long it takes for the measured level to halve) in [7] is 1.8 h; in [8] it was 1.9 h; in data set [10] it was 1.6 h. For the same compound, the Maxi-K current is 127.8 in the data set on HEK293 [4], 185.3 in the data set on HEK293 [1] and 247.4 in the data set on HEK293 [5]. Further, in [11], the clearance (usually a measure of how efficiently the substance is removed, as volume per time) came to 51.5 mL/min/kg. In [13], the Vd stood at 5.8 L/kg. In data set [14], the Kp (in general, tissue or fluid exposure divided by exposure in the circulation) came out at 9.6.
